Reference: patent publication US20230257396A1, “MACROCYCLES AND THEIR USE” (BLOSSOMHILL THERAPEUTICS, INC., priority 2020, published 2023)

What was measured:
Test in all cases: KINOMEscan kinase binding assay (Eurofins/DiscoveRx), % Ctrl
kinases [1] = target: T1, kinases (Homo sapiens, UniProt P00533, T790M); settings: 1 μM; EGFR(T790M)
T1 construct: purchased Eurofins/DiscoveRx; host or cells: E. coli BL21-derived host (T7 phage display) for most kinases; HEK-293 for the rest
Summary of the method: (§1)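 Competition binding, 1 h RT: phage-tagged or HEK-293-expressed DNA-tagged kinase + immobilized ligand + compound. Eluate kinase by qPCR. % Ctrl = (test − positive ctrl)/(negative ctrl − positive ctrl) × 100; lower means stronger binding.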

kinases [2] = target: T2, kinases (Homo sapiens, UniProt P42684); settings: 1 μM; ABL2
T2 construct: purchased Eurofins/DiscoveRx; host or cells: E. coli BL21-derived host (T7 phage display) for most kinases; HEK-293 for the rest
Summary of the method: as §1

kinases [3] = target: T3, kinases (Homo sapiens, UniProt P00533, DEL752-759); settings: 1 μM; EGFR(S752-I759del)
T3 construct: purchased Eurofins/DiscoveRx; host or cells: E. coli BL21-derived host (T7 phage display) for most kinases; HEK-293 for the rest
Summary of the method: as §1

kinases [4] = target: T4, kinases (Homo sapiens, UniProt P07949, V804L); settings: 1 μM; RET(V804L)
T4 construct: purchased Eurofins/DiscoveRx; host or cells: E. coli BL21-derived host (T7 phage display) for most kinases; HEK-293 for the rest
T4 sequence (P07949 29-1114 V804L): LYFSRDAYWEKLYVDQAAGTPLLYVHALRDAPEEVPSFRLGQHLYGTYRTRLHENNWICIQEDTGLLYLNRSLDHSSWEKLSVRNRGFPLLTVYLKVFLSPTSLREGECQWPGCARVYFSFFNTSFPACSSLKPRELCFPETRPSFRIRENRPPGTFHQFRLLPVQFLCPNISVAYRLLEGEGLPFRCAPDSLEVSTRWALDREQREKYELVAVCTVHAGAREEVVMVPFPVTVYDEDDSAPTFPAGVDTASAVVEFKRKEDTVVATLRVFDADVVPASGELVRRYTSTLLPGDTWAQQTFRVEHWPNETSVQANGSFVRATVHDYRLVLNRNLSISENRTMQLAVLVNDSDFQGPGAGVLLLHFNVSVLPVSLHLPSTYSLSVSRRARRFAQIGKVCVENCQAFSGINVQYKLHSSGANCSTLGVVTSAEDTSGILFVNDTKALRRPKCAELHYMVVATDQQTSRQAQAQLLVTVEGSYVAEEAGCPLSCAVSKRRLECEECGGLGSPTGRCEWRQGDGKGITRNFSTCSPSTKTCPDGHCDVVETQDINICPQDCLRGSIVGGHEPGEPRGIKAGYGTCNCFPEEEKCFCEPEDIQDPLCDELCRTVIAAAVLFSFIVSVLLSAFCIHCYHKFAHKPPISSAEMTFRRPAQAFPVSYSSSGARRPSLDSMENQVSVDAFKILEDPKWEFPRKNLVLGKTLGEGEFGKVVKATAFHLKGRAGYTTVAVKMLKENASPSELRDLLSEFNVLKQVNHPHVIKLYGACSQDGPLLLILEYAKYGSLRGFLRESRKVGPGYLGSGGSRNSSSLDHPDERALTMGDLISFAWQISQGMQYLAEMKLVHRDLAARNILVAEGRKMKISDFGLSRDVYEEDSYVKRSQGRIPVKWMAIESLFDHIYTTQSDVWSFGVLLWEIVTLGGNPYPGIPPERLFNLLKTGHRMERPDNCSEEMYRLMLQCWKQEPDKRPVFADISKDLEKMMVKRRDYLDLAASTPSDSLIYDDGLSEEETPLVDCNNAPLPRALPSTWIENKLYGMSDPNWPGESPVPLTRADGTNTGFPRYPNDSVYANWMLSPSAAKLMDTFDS
Summary of the method: as §1

kinases [5] = target: T5, kinases (Homo sapiens, UniProt P10721, V559D); settings: 1 μM; KIT(V559D)
T5 construct: purchased Eurofins/DiscoveRx; host or cells: E. coli BL21-derived host (T7 phage display) for most kinases; HEK-293 for the rest
T5 sequence (P10721 26-976 V559D): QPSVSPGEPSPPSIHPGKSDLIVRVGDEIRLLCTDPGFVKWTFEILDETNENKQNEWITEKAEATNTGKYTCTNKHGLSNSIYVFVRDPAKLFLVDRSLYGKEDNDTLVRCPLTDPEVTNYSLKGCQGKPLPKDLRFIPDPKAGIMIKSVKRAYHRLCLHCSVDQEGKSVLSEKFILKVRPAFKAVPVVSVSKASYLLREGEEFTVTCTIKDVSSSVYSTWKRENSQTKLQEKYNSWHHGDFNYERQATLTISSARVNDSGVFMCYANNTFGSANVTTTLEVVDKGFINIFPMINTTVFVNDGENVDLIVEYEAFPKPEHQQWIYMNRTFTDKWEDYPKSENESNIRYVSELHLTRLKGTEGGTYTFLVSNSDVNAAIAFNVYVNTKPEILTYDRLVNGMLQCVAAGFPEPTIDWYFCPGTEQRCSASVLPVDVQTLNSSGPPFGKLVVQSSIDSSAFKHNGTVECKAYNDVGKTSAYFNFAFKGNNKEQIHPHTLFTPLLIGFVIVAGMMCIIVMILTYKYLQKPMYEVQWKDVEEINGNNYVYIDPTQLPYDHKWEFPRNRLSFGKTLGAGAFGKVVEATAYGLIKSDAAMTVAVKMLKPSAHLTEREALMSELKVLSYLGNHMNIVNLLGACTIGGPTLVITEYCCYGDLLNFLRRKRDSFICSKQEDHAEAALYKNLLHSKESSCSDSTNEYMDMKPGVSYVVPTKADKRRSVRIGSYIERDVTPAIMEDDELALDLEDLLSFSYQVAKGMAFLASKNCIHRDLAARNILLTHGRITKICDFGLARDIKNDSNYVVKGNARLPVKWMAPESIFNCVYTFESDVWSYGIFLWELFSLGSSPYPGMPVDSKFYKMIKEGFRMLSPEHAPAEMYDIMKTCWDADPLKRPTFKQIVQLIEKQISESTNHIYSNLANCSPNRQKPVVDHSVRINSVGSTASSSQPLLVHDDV
Summary of the method: as §1

kinases [6] = target: T6, kinases (Homo sapiens, UniProt P00533, L861Q); settings: 1 μM; EGFR(L861Q)
T6 construct: purchased Eurofins/DiscoveRx; host or cells: E. coli BL21-derived host (T7 phage display) for most kinases; HEK-293 for the rest
Summary of the method: as §1

kinases [7] = target: T7, kinases (Homo sapiens, UniProt P35916); settings: 1 μM; FLT4
T7 construct: purchased Eurofins/DiscoveRx; host or cells: E. coli BL21-derived host (T7 phage display) for most kinases; HEK-293 for the rest
T7 sequence (P35916 25-1363): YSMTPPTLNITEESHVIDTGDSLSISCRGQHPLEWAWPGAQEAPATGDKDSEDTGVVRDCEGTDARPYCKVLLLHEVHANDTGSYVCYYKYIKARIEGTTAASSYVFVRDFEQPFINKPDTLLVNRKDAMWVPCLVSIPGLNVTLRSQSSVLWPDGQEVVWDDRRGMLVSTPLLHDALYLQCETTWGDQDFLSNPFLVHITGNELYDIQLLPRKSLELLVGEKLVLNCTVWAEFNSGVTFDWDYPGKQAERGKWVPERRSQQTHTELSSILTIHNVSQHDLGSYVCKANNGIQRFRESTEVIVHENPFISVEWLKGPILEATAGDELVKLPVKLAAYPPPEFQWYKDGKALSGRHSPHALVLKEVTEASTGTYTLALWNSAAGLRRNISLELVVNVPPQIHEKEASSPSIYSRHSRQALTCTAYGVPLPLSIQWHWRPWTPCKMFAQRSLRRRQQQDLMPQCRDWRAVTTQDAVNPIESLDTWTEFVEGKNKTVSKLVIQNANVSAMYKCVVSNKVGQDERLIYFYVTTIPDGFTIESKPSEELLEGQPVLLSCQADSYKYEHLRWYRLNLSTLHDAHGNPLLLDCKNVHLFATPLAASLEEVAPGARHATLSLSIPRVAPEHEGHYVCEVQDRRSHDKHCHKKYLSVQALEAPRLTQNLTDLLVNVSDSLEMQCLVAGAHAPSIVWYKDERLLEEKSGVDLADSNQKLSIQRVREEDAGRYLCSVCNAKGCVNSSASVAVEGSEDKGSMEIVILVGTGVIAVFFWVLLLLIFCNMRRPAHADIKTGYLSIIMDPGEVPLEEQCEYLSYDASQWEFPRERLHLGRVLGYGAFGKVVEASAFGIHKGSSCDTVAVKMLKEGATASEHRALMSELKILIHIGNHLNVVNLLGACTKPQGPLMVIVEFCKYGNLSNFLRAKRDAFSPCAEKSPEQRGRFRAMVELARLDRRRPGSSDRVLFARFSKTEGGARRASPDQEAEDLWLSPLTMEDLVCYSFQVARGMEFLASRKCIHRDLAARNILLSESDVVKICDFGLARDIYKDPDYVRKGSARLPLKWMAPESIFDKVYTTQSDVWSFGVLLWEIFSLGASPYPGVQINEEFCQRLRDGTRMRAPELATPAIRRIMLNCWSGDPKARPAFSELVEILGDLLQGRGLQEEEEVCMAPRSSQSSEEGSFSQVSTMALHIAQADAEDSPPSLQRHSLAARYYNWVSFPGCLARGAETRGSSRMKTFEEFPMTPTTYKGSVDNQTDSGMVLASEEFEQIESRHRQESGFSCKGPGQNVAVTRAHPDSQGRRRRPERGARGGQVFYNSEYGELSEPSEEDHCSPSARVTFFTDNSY
Summary of the method: as §1

kinases [8] = target: T8, kinases (Homo sapiens, UniProt P10721); settings: 1 μM
T8 construct: purchased Eurofins/DiscoveRx; host or cells: E. coli BL21-derived host (T7 phage display) for most kinases; HEK-293 for the rest
T8 sequence (P10721 26-976): as the sequence (P10721 26-976 V559D) above, with D534V counted along it
Summary of the method: as §1

kinases [9] = target: T9, kinases (Homo sapiens, UniProt P00519, M351T); settings: 1 μM; ABL1(M351T)-phosphorylated
T9 construct: purchased Eurofins/DiscoveRx; host or cells: E. coli BL21-derived host (T7 phage display) for most kinases; HEK-293 for the rest
Summary of the method: as §1

kinases [10] = target: T10, kinases (Homo sapiens, UniProt P36888); settings: 1 μM
T10 construct: purchased Eurofins/DiscoveRx; host or cells: E. coli BL21-derived host (T7 phage display) for most kinases; HEK-293 for the rest
T10 sequence (P36888 27-993): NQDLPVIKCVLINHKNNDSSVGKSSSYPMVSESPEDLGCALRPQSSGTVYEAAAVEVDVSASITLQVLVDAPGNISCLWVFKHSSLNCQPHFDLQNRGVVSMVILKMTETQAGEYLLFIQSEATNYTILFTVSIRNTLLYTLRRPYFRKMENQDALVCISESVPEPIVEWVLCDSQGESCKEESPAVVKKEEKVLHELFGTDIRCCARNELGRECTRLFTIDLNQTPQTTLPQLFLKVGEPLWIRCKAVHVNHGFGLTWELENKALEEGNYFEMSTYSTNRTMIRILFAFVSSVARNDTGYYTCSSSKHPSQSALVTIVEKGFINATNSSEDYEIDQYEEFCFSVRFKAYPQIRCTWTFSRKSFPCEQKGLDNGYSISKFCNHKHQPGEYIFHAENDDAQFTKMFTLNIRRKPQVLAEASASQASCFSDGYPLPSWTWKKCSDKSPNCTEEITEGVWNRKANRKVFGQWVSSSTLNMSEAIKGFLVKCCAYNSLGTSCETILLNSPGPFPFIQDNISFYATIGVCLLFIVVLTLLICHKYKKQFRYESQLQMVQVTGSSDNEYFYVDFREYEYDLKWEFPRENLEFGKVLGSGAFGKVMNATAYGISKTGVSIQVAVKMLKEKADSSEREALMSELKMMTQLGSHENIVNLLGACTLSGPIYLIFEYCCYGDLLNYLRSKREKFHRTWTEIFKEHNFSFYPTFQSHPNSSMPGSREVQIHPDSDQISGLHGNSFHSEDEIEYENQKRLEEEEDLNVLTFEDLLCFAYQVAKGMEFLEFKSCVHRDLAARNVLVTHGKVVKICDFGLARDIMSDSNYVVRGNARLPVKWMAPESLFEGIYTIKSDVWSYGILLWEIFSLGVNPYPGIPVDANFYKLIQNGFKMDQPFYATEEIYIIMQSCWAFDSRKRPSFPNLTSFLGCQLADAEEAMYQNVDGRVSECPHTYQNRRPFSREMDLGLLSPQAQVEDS
Summary of the method: as §1

kinases [11] = target: T11, kinases (Homo sapiens, UniProt P10721, D816H); settings: 1 μM; KIT(D816H)
T11 construct: purchased Eurofins/DiscoveRx; host or cells: E. coli BL21-derived host (T7 phage display) for most kinases; HEK-293 for the rest
T11 sequence (P10721 26-976 D816H): as the sequence (P10721 26-976 V559D) above, with D534V, D791H counted along it
Summary of the method: as §1

kinases [12] = target: T12, kinases (Homo sapiens, UniProt P09619); settings: 1 μM; PDGFRB
T12 construct: purchased Eurofins/DiscoveRx; host or cells: E. coli BL21-derived host (T7 phage display) for most kinases; HEK-293 for the rest
T12 sequence (P09619 33-1106): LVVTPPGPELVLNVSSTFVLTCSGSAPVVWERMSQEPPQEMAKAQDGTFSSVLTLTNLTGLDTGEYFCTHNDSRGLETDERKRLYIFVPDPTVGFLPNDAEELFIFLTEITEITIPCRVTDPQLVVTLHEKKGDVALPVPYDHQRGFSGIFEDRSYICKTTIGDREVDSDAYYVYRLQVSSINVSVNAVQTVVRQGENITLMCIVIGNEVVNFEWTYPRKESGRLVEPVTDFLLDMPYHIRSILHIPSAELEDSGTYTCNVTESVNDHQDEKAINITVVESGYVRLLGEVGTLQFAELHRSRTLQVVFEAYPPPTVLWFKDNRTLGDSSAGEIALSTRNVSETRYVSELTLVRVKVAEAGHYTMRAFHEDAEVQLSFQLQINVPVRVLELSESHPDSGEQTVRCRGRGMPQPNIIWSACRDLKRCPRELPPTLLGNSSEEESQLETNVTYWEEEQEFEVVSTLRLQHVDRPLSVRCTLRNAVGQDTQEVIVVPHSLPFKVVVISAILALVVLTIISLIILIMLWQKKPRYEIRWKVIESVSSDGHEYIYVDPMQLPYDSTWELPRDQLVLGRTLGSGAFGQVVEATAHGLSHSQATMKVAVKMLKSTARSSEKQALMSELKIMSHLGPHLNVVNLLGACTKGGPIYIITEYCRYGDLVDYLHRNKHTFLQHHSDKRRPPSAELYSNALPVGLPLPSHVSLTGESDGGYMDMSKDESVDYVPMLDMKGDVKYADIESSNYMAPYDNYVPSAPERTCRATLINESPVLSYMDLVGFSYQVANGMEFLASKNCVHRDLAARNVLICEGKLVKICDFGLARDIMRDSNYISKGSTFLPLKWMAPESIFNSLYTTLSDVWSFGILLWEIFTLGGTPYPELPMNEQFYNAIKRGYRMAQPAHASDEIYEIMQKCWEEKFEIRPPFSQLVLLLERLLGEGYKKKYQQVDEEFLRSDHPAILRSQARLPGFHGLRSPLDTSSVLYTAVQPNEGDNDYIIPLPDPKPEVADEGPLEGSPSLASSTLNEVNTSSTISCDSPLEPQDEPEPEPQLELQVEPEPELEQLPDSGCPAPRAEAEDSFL
Summary of the method: as §1

kinases [13] = target: T13, kinases (Homo sapiens, UniProt P07949, M918T); settings: 1 μM; RET(M918T)
T13 construct: purchased Eurofins/DiscoveRx; host or cells: E. coli BL21-derived host (T7 phage display) for most kinases; HEK-293 for the rest
T13 sequence (P07949 29-1114 M918T): as the sequence (P07949 29-1114 V804L) above, with L776V, M890T counted along it
Summary of the method: as §1

kinases [14] = target: T14, kinases (Homo sapiens, UniProt P00519, H396P); settings: 1 μM
T14 construct: purchased Eurofins/DiscoveRx; host or cells: E. coli BL21-derived host (T7 phage display) for most kinases; HEK-293 for the rest
Summary of the method: as §1

kinases [15] = target: T15, kinases (Homo sapiens, UniProt P07949, V804M); settings: 1 μM; RET(V804M)
T15 construct: purchased Eurofins/DiscoveRx; host or cells: E. coli BL21-derived host (T7 phage display) for most kinases; HEK-293 for the rest
T15 sequence (P07949 29-1114 V804M): as the sequence (P07949 29-1114 V804L) above, with L776M counted along it
Summary of the method: as §1

| % Ctrl, EGFR(T790M) (kinases [1]) [% Ctrl] | % Ctrl, ABL2 (kinases [2]) [% Ctrl] | % Ctrl, EGFR(S752-I759del) (kinases [3]) [% Ctrl] | % Ctrl, RET(V804L) (kinases [4]) [% Ctrl] | % Ctrl, KIT(V559D) (kinases [5]) [% Ctrl] | % Ctrl, EGFR(L861Q) (kinases [6]) [% Ctrl] | % Ctrl, FLT4 (kinases [7]) [% Ctrl] | % Ctrl, KIT (kinases [8]) [% Ctrl] | % Ctrl, KIT-autoinhibited (kinases [8]) [% Ctrl] | % Ctrl, ABL1(M351T)-phosphorylated (kinases [9]) [% Ctrl] | % Ctrl, FLT3 (kinases [10]) [% Ctrl] | % Ctrl, FLT3-autoinhibited (kinases [10]) [% Ctrl] | % Ctrl, KIT(D816H) (kinases [11]) [% Ctrl] | % Ctrl, PDGFRB (kinases [12]) [% Ctrl] | % Ctrl, RET(M918T) (kinases [13]) [% Ctrl] | % Ctrl, ABL1(H396P)-nonphosphorylated (kinases [14]) [% Ctrl] | % Ctrl, ABL1(H396P)-phosphorylated (kinases [14]) [% Ctrl] | % Ctrl, RET(V804M) (kinases [15]) [% Ctrl] | SMILES |
| --- | --- | --- | --- | --- | --- | --- | --- | --- | --- | --- | --- | --- | --- | --- | --- | --- | --- | --- |
| 98 | 96 | 90 | 58 | 47 | 97 | 98 | 65 | 75 | 58 | 48 | 95 | 43 | 60 | 26 | 49 | 67 | 69 | Cc1cc2c([nH]1)/C=C1\C(=O)Nc3cc(Cl)c(cc31)OCCO[C@@H](C(=O)NC1CNC1)CN(C)C2=O [Ex. 133, [7R,16a(17)Z]-N-(azetidin-3-yl)-19-chloro-2,5-dimethyl-4,16-dioxo-4,5,6,7,9,10,15,16-octahydro-1H-12,14-(ethanediylidene)dipyrrolo[3,2-i:3′,4′-l][1,4,7]dioxazacyclopentadecine-7-carboxamide] |
| 9.2 | 6.9 | 57 | 0.55 | 82 | 73 | 2.1 | 89 | 80 | 0.2 | 4.6 | 9.9 | 60 | 28 | 2.1 | 0 | 0 | 1.6 | Cc1cc2c([nH]1)/C=C1\C(=O)Nc3ccc(cc31)-c1c(C)n[nH]c1CNCCN(C)C2=O [Ex. 127, [3a(4)Z]-6,9,16-trimethyl-9,10,11,12,13,14-hexahydro-1,17-(ethanediylidene)pyrazolo[4,3-m]dipyrrolo[3,2-f:3′,4′-i][1,4]diazacyclopentadecine-3,8(2H,5H)-dione] |
